Measurements: US9593305B2, “Differentiation of pluripotent stem cells” (Janssen Biotech, Inc., priority 2008, dated 2017)

Key:
[1] = test system: H1 p49C3 cells; assay: Differentiation on microcarrier beads, cell number and CXCR4 by flow cytometry (Example 22); assay type: cell-based, human; conditions: three days
Method: H1 p49C3 cells were routinely grown on Cytodex3 beads (GE Healthcare Life Sciences, NJ) in a 125 ml spinner flask, according to the methods described in U.S. Patent Application No. 61/116,447. After seven days, cells and beads were transferred to a 6 well plate at a ratio of 30 cm^2 bead surface area per well, and the plate was placed on a rocking platform. Cells on beads in the positive control treatment well (designated AA/Wnt3a) were differentiated with addition of 100 ng/ml activin A (PeproTech; Cat #120-14) and 20 ng/ml Wnt3a (R&D Systems; Cat #1324-WN/CF) for two days followed by 100 ng/ml activin A and 8 ng/ml bFGF (PeproTech Inc.; Cat #: 100-18B) for one day in RPMI-1640 (Invitrogen; Cat #: 22400) with 2% Fatty Acid Free BSA (MP Biomedicals, Inc; Cat #152401) using volumes of 2 ml/well. Compound 34, at a final concentration of 2.5 nM was added to a negative control treatment well (designated CMP alone (JNJ alone)) in RPMI-1640 with 2% Fatty Acid Free BSA (2 ml/well) for three days in the absence of any other growth factor treatment. […]
At the conclusion of treatment and culture, cells were harvested from the beads, according to the methods described in U.S. Patent Application No. 61/116,447. The harvested cells were counted and analyzed by flow cytometry, according to the methods described above. […]

[2] = test system: H1 human embryonic stem cells; assay: Four-step differentiation before transplant, RT-PCR of pancreatic endoderm markers after step 4 (Example 18); assay type: cell-based; conditions: GDF-8 100 ng/ml + 2.5 μM compound in step 1, versus activin A and Wnt3a
Method: The differentiation process was started three days after the cells were seeded onto 6-well plates coated with reduced growth factor […]™. A four-step protocol was used for the in vitro differentiation of H1 human embryonic stem cells to cells expressing markers characteristic of the pancreatic endoderm lineage. Step 1 was conducted over three days to generate definitive endoderm cells. On the first day of step 1, differentiation was initiated by aspirating spent culture medium and adding an equal volume of RPMI-1640 basal medium (Invitrogen; Cat 22400) with 2% Albumin Bovine Fraction V, Fatty Acid Free (FAF BSA) (Proliant Biologicals; Cat #SKU 68700) and 8 ng/ml bFGF. In one treatment group, cells were exposed to 100 ng/ml activin A (PeproTech; Cat #120-14) with 20 ng/ml Wnt3a (R&D Systems; Cat #1324-WN/CF). In a second treatment group, cells were exposed to 100 ng/ml GDF-8 (R&D Systems; Cat #788-G8) with 2.5 μM Compound 40. In a third treatment group, cells were exposed to 100 ng/ml GDF-8 (R&D Systems; Cat #788-G8) with 2.5 μM Compound 202. […]
Step 4 of the differentiation protocol was conducted over three days. […] On the following day, cells in suspension culture were collected and counted. […]

Row | SMILES | differentiation into CXCR4 positive cells ([1]; Compound 34 alone, no growth factor, Cytodex3 beads) | CXCR4 expression, % of the cells, on average ([1]; Compound 34 with the various growth factor combinations including 50 ng/ml GDF-8, Cytodex3 beads) | PE markers CDX2, MAFA, NGN3, NKX6.1, PDX1 and Ptf1 alpha at the conclusion of step 4 (RT-PCR) [2]
1 | O=C1CCN2CCN(CC2)Cc2cc(Cl)cc(c2)Nc2ncnc(n2)-c2cncc(c2)CCCN1 [Compound 34, 5-Chloro-1,8,10,12,16,22,26,32-octaazapentacyclo[24.2.2.1˜3.7˜0.1˜9,13˜0.1˜14.18˜]tritriaconta-3(33), 4,6,9(32), 10,12,14(31), 15,17-nonaen-23-one] | did not differentiate into CXCR4 positive cells | 50% | 
2 | C=CCN1CC(=O)NCCCc2cncc(c2)-c2ncnc(n2)Nc2cccc(c2)C1 [Compound 40, 14-Prop-2-en-1-yl-3,5,7,14,17,23,27-heptaazatetracyclo[19.3.1.1˜2.6˜0.1˜8,12˜]heptacosa-1(25), 2(27), 3,5,8(26), 9,11,21,23-nonaen-16-one] |  |  | expressed equivalent levels of PE markers
